One test concerns HepG2 cells. As to the kind of experiment: Cytotoxic test on immortalized cells, MTT. To be noted: Homo sapiens, HepG2, 72 h. The class given is cell-based, human. Here is the method: The cytotoxic effects of brussonol and derivatives were evaluated against the human hepatocellular carcinoma cell line (HepG2). The cells were cultivated in an RPMI medium supplemented with 10% (v/v) fetal bovine serum and 25 µg/mL gentamicin. Conditions for the cultivation of these cells were 37 °C and 5% CO2, and every 2 days the supplemented medium was changed.
For experimental procedures, the cells were trypsinized and transferred to a 96-well plate at 30,000 cells per well (180 µL). The plate was incubated at 37 °C and 5% CO2 to allow cell adhesion. Next, 20 µL of serial dilutions of the compounds tested were added to the plate, with a range of concentrations tested from 400–6.25 µM. Cells without any compounds were used as a positive control for growing and the wells containing only medium were used as negative controls. The plate was incubated for 72 h at 37 °C and 5% CO2. After incubation, a microscope was used to determine the highest compound concentration to be used in the experiments (highest concentration without precipitation). A colorimetric assay was used to evaluate cytotoxicity. This assay is based on the metabolic cell activity in the presence of 3-(4,5-dimethylthiazol-2-yl)-2,5-diphenyltetrazolium bromide (MTT). Shortly after incubation, 20 µL of a solution of MTT at 5 mg/mL (solubilized in phosphate buffer) is added to each well. The plate is incubated for 3 to 4 h at 37 °C to allow MTT cleavage in living cells. Then, the supernatant is removed, and 100 µL of dimethylsulfoxide (DMSO) is added to solubilize the purple formazan crystals. The absorbance, which is proportional to the number of viable cells, was determined using a SpectraMAX Plus 384 plate reader (Molecular Devices Corp., Sunnyvale, CA) (λ = 570 nm). All compounds described here were purchased from Sigma-Aldrich (verificar local).
After the IC50 against the parasite and the human cell line is determined, it is possible to calculate the SI. It is calculated as the formula below:SI = IC50^HepG2/IC50^Pf.
For our reference, compounds with SI values higher than 10 are considered well tolerated by the cellular model used, and they are considered for further evaluation.

The next test concerns P. falciparum 3D7 strain. As to the kind of experiment: Chemical rescue assay with isopentenyl pyrophosphate (IPP). The class given is cell-based, Plasmodium falciparum. To be noted: for IC50: Plasmodium falciparum, 3D7 strain, 72 h. From the text:
To evaluate whether brussonol interfered with the biosynthesis of […] in malaria parasites, we conducted a chemical rescue assay. The assay identifies compounds that interfere with the metabolism of isoprenoids by “rescuing” their growth inhibition through the supplementation of isopentenyl pyrophosphate (IPP), a key precursor of isoprenoid biosynthesis. […] Thus, the chemical rescue assay compares the IC50 values of the tested compound in the presence and absence of IPP. We used fosmidomycin (FOS) as a positive control for growth inhibition rescuing upon supplementation of IPP (Figure 7b). In this assay, compounds that interfere in the metabolism of isoprenoids show a significant increment in the IC50 value in the presence of IPP (Figure 7b).
The chemical rescue assay was carried out as described by Yeh and DeRisi (2011). This assay consists in verifying the IC50 value of the tested compounds with and without the isopentenyl pyrophosphate (IPP), purchased from Isoprenoids, LC (Florida, USA). Briefly, 3D7 strain ring stages were cultured in 96-well plates, with 0.5% parasitemia and 2% hematocrit. Non-parasitized erythrocytes and parasitized erythrocytes without drugs were used as growth controls, and fosmidomycin (FOS) was used as a positive control for chemical rescue. Serial dilutions of brussonol and FOS were prepared in duplicates. In the same 96-well plate, brussonol and FOS had their antiplasmodial activity evaluated with and without supplementation of 200 µM IPP. Plates were incubated for 72 h and analyzed by the SYBR Green I assay.

The structures appear in SMILES notation. Like-named read-outs stand apart in the source and are kept apart here.

As a reminder, the IC50 is the concentration needed to halve the response being measured. Regarding `CC(C)c1cc2c(c(O)c1O)C[C@@]13CCCC(C)(C)[C@@H]1C[C@@H]2O3` [Compound 1, brussonol], the IC50 in the test on HepG2 cells turned out to be 67 ± 4 µM; with P. falciparum 3D7 strain (with 200 µM IPP, read-out: IC50 in the presence of IPP), 13.9 ± 0.2 µM; in the test with P. falciparum 3D7 strain (without IPP, read-out: IC50 in the absence of IPP) it was 18 ± 1 µM. Further, in the test with P. falciparum 3D7 strain (200 µM IPP), the “reversal of growth inhibition by IPP supplementation” value is “did not reverse the growth inhibition”.

These data come from article PMC9321043, “Synthesis, Structure–Activity Relationships, and Parasitological Profiling of Brussonol Derivatives as New Plasmodium falciparum Inhibitors” (Pharmaceuticals, 2022).
